Key:
bedstraw = test: Test B pre/postemergence bedstraw; format: in vivo, Galium aparine; details: Preemergence
Procedure, shortened: (§1)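 Test chemicals in a non-phytotoxic solvent mixture with surfactant were sprayed preemergence onto planted seeds and postemergence onto plants 2 to 18 cm tall (1- to 4-leaf stage). After twelve to sixteen days in a greenhouse, injury was visually rated against untreated controls from 0 (no effect) to 10 (complete control).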

blackgrass = test: Test B pre/postemergence blackgrass; format: in vivo, Alopecurus myosuroides
Procedure, shortened: as §1

surinam grass = test: Test B pre/postemergence surinam grass; format: in vivo, Brachiaria decumbens
Procedure, shortened: as §1

cocklebur = test: Test B pre/postemergence cocklebur; format: in vivo, Xanthium strumarium
Procedure, shortened: as §1

corn = test: Test B pre/postemergence corn; format: in vivo, Zea mays
Procedure, shortened: as §1

crabgrass = test: Test B pre/postemergence crabgrass; format: in vivo, Digitaria sanguinalis
Procedure, shortened: as §1

giant foxtail = test: Test B pre/postemergence giant foxtail; format: in vivo, Setaria faberii
Procedure, shortened: as §1

morningglory = test: Test B pre/postemergence morningglory; format: in vivo, Ipomoea hederacea
Procedure, shortened: as §1

pigweed = test: Test B pre/postemergence pigweed; format: in vivo, Amaranthus retroflexus
Procedure, shortened: as §1

rape = test: Test B pre/postemergence rape; format: in vivo, Brassica napus
Procedure, shortened: as §1

soybean = test: Test B pre/postemergence soybean; format: in vivo, Glycine max
Procedure, shortened: as §1

sugar beet = test: Test B pre/postemergence sugar beet; format: in vivo, Beta vulgaris
Procedure, shortened: as §1

velvetleaf = test: Test B pre/postemergence velvetleaf; format: in vivo, Abutilon theophrasti
Procedure, shortened: as §1

wheat = test: Test B pre/postemergence wheat; format: in vivo, Triticum aestivum
Procedure, shortened: as §1

wild oat = test: Test B pre/postemergence wild oat; format: in vivo, Avena fatua
Procedure, shortened: as §1

purple nutsedge = test: Test B pre/postemergence purple nutsedge; format: in vivo, Cyperus rotundus
Procedure, shortened: as §1

[1] = Postemergence, Rate 62 g/ha, scale of 0 to 10, 0 is no effect, 10 is complete control
[2] = Postemergence, Rate 125 g/ha, scale 0 to 10, 0 is no effect, 10 is complete control
[3] = Postemergence, Rate 500 g/ha, scale 0 to 10, 0 is no effect, 10 is complete control
[4] = Preemergence, Rate 62 g/ha, scale of 0 to 10 where 0 is no effect and 10 is complete control
[5] = Preemergence, Rate 125 g/ha, scale 0 to 10, 0 is no effect, 10 is complete control
[6] = Preemergence, Rate 500 g/ha, scale of 0 to 10 where 0 is no effect and 10 is complete control
[7] = Rate 250 g/ha, Postemergence, scale of 0 to 10 where 0 is no effect and 10 is complete control

Question: Which results are given for `CC(C)N(C(=O)n1oc(=O)n(CCC(F)(F)F)c1=O)c1ccc(F)cc1F` [Compound 525]?
Answer: Plant response rating, Bedstraw (bedstraw; Rate 62 g/ha, scale of 0 to 10 where 0 is no effect and 10 is complete control): 0; Bedstraw plant response rating (bedstraw; Rate 125 g/ha, scale 0 to 10, 0 is no effect, 10 is complete control): 0; Bedstraw plant response rating (0 to 10 scale) (bedstraw; Rate 250 g/ha): 0; Bedstraw plant response rating (bedstraw; Rate 500 g/ha, scale of 0 to 10 where 0 is no effect and 10 is complete control): 0; Blackgrass plant response rating (blackgrass; [1]): 4; Blackgrass plant response rating (blackgrass; [2]): 6; Plant response rating, Blackgrass (blackgrass; [3]): 8; Plant response rating, Blackgrass (blackgrass; [4]): 8; Blackgrass plant response rating (blackgrass; [5]): 7; Blackgrass plant response rating (blackgrass; [6]): 8; Plant response rating, Blackgrass (blackgrass; [7]): 8; B. signalgrass plant response rating (surinam grass; [1]): 0; B. signalgrass plant response rating (surinam grass; [2]): 2; Plant response rating, B. signalgrass (surinam grass; [3]): 8; Plant response rating, B. signalgrass (surinam grass; [4]): 9; B. signalgrass plant response rating (surinam grass; [6]): 9; Plant response rating, B. signalgrass (surinam grass; [7]): 2; Cocklebur plant response rating (cocklebur; [1]): 2; Cocklebur plant response rating (cocklebur; [2]): 2; Plant response rating, Cocklebur (cocklebur; [3]): 2; Plant response rating, Cocklebur (cocklebur; [4]): 0; Cocklebur plant response rating (cocklebur; [5]): 0; Cocklebur plant response rating (0 to 10 scale) (cocklebur; Preemergence, Rate 250 g/ha): 0; Plant response rating, Cocklebur (cocklebur; [7]): 2; Corn plant response rating (corn; [1]): 0; Corn plant response rating (corn; [2]): 0; Plant response rating, Corn (corn; [3]): 2; Plant response rating, Corn (corn; [4]): 0; Corn plant response rating (corn; [5]): 0; Corn plant response rating (0 to 10 scale) (corn; Preemergence, Rate 250 g/ha): 4; Corn plant response rating (corn; [6]): 8; Plant response rating, Corn (corn; [7]): 2; Crabgrass plant response rating (crabgrass; [1]): 6; Plant response rating, Crabgrass (crabgrass; [3]): 9; Plant response rating, Crabgrass (crabgrass; [4]): 9; Crabgrass plant response rating (crabgrass; [5]): 9; Crabgrass plant response rating (0 to 10 scale) (crabgrass; Preemergence, Rate 250 g/ha): 10; Crabgrass plant response rating (crabgrass; [6]): 10; Plant response rating, Crabgrass (crabgrass; [7]): 9; Giant foxtail plant response rating (giant foxtail; [1]): 5; Giant foxtail plant response rating (giant foxtail; [2]): 8; Plant response rating, Giant foxtail (giant foxtail; [3]): 9; Plant response rating, Giant foxtail (giant foxtail; [4]): 9; Giant foxtail plant response rating (giant foxtail; [5]): 10; Giant foxtail plant response rating (0 to 10 scale) (giant foxtail; Preemergence, Rate 250 g/ha): 10; Giant foxtail plant response rating (giant foxtail; [6]): 10; Plant response rating, Giant foxtail (giant foxtail; [7]): 9; Morningglory plant response rating (morningglory; [1]): 2; Morningglory plant response rating (morningglory; [2]): 2; Plant response rating, Morningglory (morningglory; [3]): 3; Plant response rating, Morningglory (morningglory; [4]): 0; Morningglory plant response rating (morningglory; [5]): 0; Morningglory plant response rating (0 to 10 scale) (morningglory; Preemergence, Rate 250 g/ha): 0; Morningglory plant response rating (morningglory; [6]): 6; Plant response rating, Morningglory (morningglory; [7]): 2; Redroot pigweed plant response rating (pigweed; [1]): 2; Redroot pigweed plant response rating (pigweed; [2]): 2; Plant response rating, Redroot pigweed (pigweed; [3]): 8; Plant response rating, Redroot pigweed (pigweed; [4]): 0; Redroot pigweed plant response rating (pigweed; [5]): 0; Redroot pigweed plant response rating (pigweed; [6]): 3; Plant response rating, Redroot pigweed (pigweed; [7]): 9; Rape plant response rating (rape; [1]): 0; Rape plant response rating (rape; [2]): 0; Plant response rating, Rape (rape; [3]): 8; Plant response rating, Rape (rape; [4]): 0; Rape plant response rating (rape; [5]): 0; Rape plant response rating (rape; [6]): 4; Plant response rating, Rape (rape; [7]): 3; Soybean plant response rating (soybean; [1]): 3; Soybean plant response rating (soybean; [2]): 5; Plant response rating, Soybean (soybean; [4]): 0; Soybean plant response rating (soybean; [5]): 0; Soybean plant response rating (0 to 10 scale) (soybean; Preemergence, Rate 250 g/ha): 0; Soybean plant response rating (soybean; [6]): 0; Plant response rating, Soybean (soybean; [7]): 5; Sugarbeets plant response rating (sugar beet; [1]): 0; Sugarbeets plant response rating (sugar beet; [2]): 0; Plant response rating, Sugarbeets (sugar beet; [3]): 8; Plant response rating, Sugarbeets (sugar beet; [4]): 5; Sugarbeets plant response rating (sugar beet; [5]): 8; Sugarbeets plant response rating (sugar beet; [6]): 9; Plant response rating, Sugarbeets (sugar beet; [7]): 6; Velvetleaf plant response rating (velvetleaf; [1]): 2; Velvetleaf plant response rating (velvetleaf; [2]): 3; Plant response rating, Velvetleaf (velvetleaf; [3]): 3; Plant response rating, Velvetleaf (velvetleaf; [4]): 2; Velvetleaf plant response rating (velvetleaf; [5]): 3; Velvetleaf plant response rating (0 to 10 scale) (velvetleaf; Preemergence, Rate 250 g/ha): 3; Velvetleaf plant response rating (velvetleaf; [6]): 4; Plant response rating, Velvetleaf (velvetleaf; [7]): 3; Wheat plant response rating (wheat; [1]): 0; Wheat plant response rating (wheat; [2]): 2; Plant response rating, Wheat (wheat; [3]): 5; Plant response rating, Wheat (wheat; [4]): 3; Wheat plant response rating (wheat; [6]): 3; Plant response rating, Wheat (wheat; [7]): 5; Wild oats plant response rating (wild oat; [1]): 0; Wild oats plant response rating (wild oat; [2]): 2; Plant response rating, Wild oats (wild oat; [3]): 6; Plant response rating, Wild oats (wild oat; [4]): 5; Wild oats plant response rating (wild oat; [6]): 8; Plant response rating, Wild oats (wild oat; [7]): 4; Nutsedge plant response rating (purple nutsedge; [1]): 0; Nutsedge plant response rating (purple nutsedge; [2]): 0; Plant response rating, Nutsedge (purple nutsedge; [3]): 5; Plant response rating, Nutsedge (purple nutsedge; [4]): 0; Nutsedge plant response rating (purple nutsedge; [5]): 0; Nutsedge plant response rating (0 to 10 scale) (purple nutsedge; Preemergence, Rate 250 g/ha): 0; Nutsedge plant response rating (purple nutsedge; [6]): 0; Plant response rating, Nutsedge (purple nutsedge; [7]): 5
